The subject of series [1] is LDLR level in HepG2 cells. The series is described as follows: Effect on the LDLR level in HepG2 cells (ELISA). To be noted: 48 hours incubation, LDLR ELISA of lysate. It counts as cell-based, human. Also on record: concentration or dose not given beside the values. The method, then:
To detect the effect of the compounds on the LDLR protein level.
Envision (PE-Cisbio: 2105-0020), centrifuge (Eppendorf: 5810R), water purifier (THERMO: Pacific T II+Micropure), plate washer (Thermo: […] VERSA), and microplate shaker (Thermo: 88882006)
• 1) HepG2 cell strain was cultured in the complete culture medium at 37° C., 5% CO2 to 70-90% confluence. • 2) The cells were digested and resuspended in the experimental culture medium, inoculation was performed at 25,000 cells/well/200 μL in a 96-well cell culture plate, and the cells were cultured at 37° C., 5% CO2 for 20-24 hours. • 3) The culture medium was removed from the cell culture plate, and the cell culture plate was washed once by adding 200 μl of the experimental culture medium to each well. • 4) Preparation of positive control compound and compound to be tested: the positive control compound and the compound to be tested were diluted on the compound plate. • 5) The diluted compound was added to the cell culture plate at 250 μL per well and incubated at 37° C. and 5% CO2 for 48 hours. • 6) The cell culture medium was removed, the cells were washed with PBS, and 50 μL of the cell lysis buffer and the protein inhibitor were added. • 7) After centrifugation, the lysate was removed and the sample was stored for later use. • 8) Preparation of standard curve: corresponding volumes of Dilution buffer were successively added to respective standard tubes, and the standard was diluted in series by taking the corresponding volume from the original tube or the last concentration tube. • 9) Preparation of washing liquid: 10× Wash buffer was diluted into 1× with Milli-Q for later use. • 10) According to the standard curve wells and sample wells set according to a plate map, 80 μL/well of the corresponding standards and samples were added to the wells, with 2 replicate wells. A well in which no standard was added was used as a background value well. A self-adhesive seal was applied, the plate was placed on a plate shaker at room temperature, gently shaken, uniformly mixed, and incubated for 2 hours. • 11) The plate was placed on the plate washer, the washing liquid was set to 350 μL per well, and the plate was washed 4 times repeatedly. • 12) 200 μL of Human LDLR conjugate was added, a self-adhesive seal was applied, and the plate was placed on the plate shaker, well mixed uniformly, and incubated for 2 hours. • 13) The plate was placed on the plate washer, the washing liquid was set to 350 μL per well, and the plate was washed 4 times repeatedly. • 14) 200 μL/well of Substrate solution was added, and the plate was placed in the dark, applied with a self-adhesive seal, placed on the plate shaker, well mixed uniformly, and incubated for 20 minutes. • 15) 50 μL/well of Stop solution was added and mixed uniformly over 20 min. • 16) The optical density (OD) value in each well was measured in sequence at a wavelength of 450 nm by the microplate reader.
(§1) After the OD values were read by the microplate reader, the OD value of the 0-concentration standard in the standard group was subtracted from the OD values of the standards, control group, and samples to obtain the actual OD values for these wells. A standard curve was plotted with Graphpad and the concentration of the sample was calculated. If the dilution was performed during the sample detection, the calculated sample concentration was necessarily multiplied by the corresponding dilution ratio in the final calculation, which was the actual concentration of the sample. Concentration increase %=(actual concentration in control-actual concentration in sample)/actual concentration in control*100.
(In an ELISA, binding on a coated surface is turned into a signal by an enzyme label.)

Series [2] has as its target PCSK9 secreted by HepG2 cells (Homo sapiens (Human), UniProt Q8NBP7). The series is described as follows: Effect on the concentration of PCSK9 secreted by HepG2 cells (ELISA). It is filed as cell-based. To be noted: 48 hours incubation, read-out: Inhibitory activity on PCSK9, IC50.
Text: • 1. Experimental objective: To detect the inhibitory effect of the compounds on PCSK9. • 2. Experimental instruments and reagents: • 2.1 Instruments:
• CircuLex Human PCSK9 ELISA kit (MBL: CY-8079); • DMEM (Gibco: 31966-021) • FBS (Sigma: S5394) • Compound plate (Thermo: 1353506) • Complete culture medium: DMEM+10% FBS+1×P/S; • Experimental culture medium: DMEM+10% FBS • Cell strain: HepG2 (ATCC: HB-8065)
A self-adhesive seal was applied, the plate was placed on a plate shaker at room temperature, gently shaken, uniformly mixed, and incubated for 1 hour. • 11) The plate was placed on the plate washer, the washing liquid was set to 350 μL per well, and the plate was washed 4 times repeatedly. • 12) 100 μL/well of an HRP-conjugated detection antibody was added, a self-adhesive seal was applied, and the plate was placed on the plate shaker, well mixed uniformly, and incubated for 1 hour. • 13) The plate was placed on the plate washer, the washing liquid was set to 350 μL per well, and the plate was washed 4 times repeatedly. • 14) 100 μL/well of Substrate reagent was added, and the plate was placed in the dark, applied with a self-adhesive seal, placed on the plate shaker, well mixed uniformly, and incubated for 10-20 minutes. • 15) 100 μL/well of Stop solution (1N H2SO4) was added and mixed uniformly. • 16) The optical density (OD) value in each well was measured in sequence at a wavelength of 450 nm by the microplate reader. Detection was carried out within 30 min after the reaction was stopped.
as §1, with “Inhibition rate=(actual” for “Concentration increase %=(actual”, “control*100. According to the inhibition rates corresponding to the different concentrations, IC50 was derived by Graphpad.” for “control*100.”

Another series deals with PCSK9 protein (Homo sapiens (Human), UniProt Q8NBP7). The series can be described thus: Binding experiment: surface plasmon resonance (SPR) binding to PCSK9 protein. From the text:
• 1. Experimental objective: To detect the action of compounds to bind PCSK9 protein by a conventional surface plasmon resonance (SPR) method.
A general note: Surface plasmon resonance follows binding to a sensor surface in real time, without labels.

A short description of series [3]: Pharmacokinetic determination in mice (plasma). It counts as in vivo, C57BL/6J mice. To be noted: C57 mice, PO administration, 5 mpk; for AUC(0-inf) / half-life / MRT / Cmax: male, C57BL/6J, mouse, 5 mg/kg; for AUC(0-inf): read-out: Area under the curve AUC0-∞; for half-life: read-out: Half-life t1/2 (converted); for MRT: read-out: Mean residence time MRT; for Cmax: read-out: Plasma concentration Cmax. The method, then: C57BL/6J mice were used as test animals to study the pharmacokinetic behavior of the compounds of the present disclosure in mice (plasma) after oral and intravenous administration.
C57 mice, male, purchased from Shanghai Bk Lab Animal Co., Ltd., with animal production license number (SCXK (Shanghai) 2013-0006 NO.311620400001794).
• Preparation of oral drug: 10% Solutol HS15
10 g of Solutol HS15 solid was weighed, dissolved in 90 mL of pure water, uniformly mixed, stirred, and ultrasonically treated to form a clear solution.
The compound of the present disclosure was weighed and dissolved in this solution, uniformly shaken, and ultrasonically treated for 15 minutes to obtain a colorless clear solution with a concentration of 0.5 mg/mL. • Preparation of intravenous drug: 5% DMSO+10% Solutol HS15+85% PBS […]
3 male C57 mice were fasted overnight and then respectively administered PO at a dose of 5 mg/kg and a volume of 10 mL/kg. […]
Before and after administration of mice, 0.04 mL of blood was collected from the orbit at 0.083 (iv), 0.25, 0.5, 1, 2, 4, 8, and 24 hours, and placed in EDTA-K2 test tubes, which was centrifuged at 6000 rpm at 4° C. for 6 min to separate plasma which was stored at −80° C.; and the […] were fed 4 h after administration.
The final determination results were obtained by using an LCMS/MS method.
The main pharmacokinetic parameters were calculated using WinNonlin 6.1.

SMILES strings stand for the structures.

The record followed here is patent publication US20250326722A1 (SHANGHAI HANSOH BIOMEDICAL CO., LTD., priority 2022, published 2025).

Usually IC50 stands for the concentration that inhibits the measured activity by half. Broadly, the Kd is a measure of binding affinity in units of concentration. The MRT is the average time that molecules of a dose stay in the body.

Sequence of PCSK9 secreted by HepG2 cells (Q8NBP7 153-692): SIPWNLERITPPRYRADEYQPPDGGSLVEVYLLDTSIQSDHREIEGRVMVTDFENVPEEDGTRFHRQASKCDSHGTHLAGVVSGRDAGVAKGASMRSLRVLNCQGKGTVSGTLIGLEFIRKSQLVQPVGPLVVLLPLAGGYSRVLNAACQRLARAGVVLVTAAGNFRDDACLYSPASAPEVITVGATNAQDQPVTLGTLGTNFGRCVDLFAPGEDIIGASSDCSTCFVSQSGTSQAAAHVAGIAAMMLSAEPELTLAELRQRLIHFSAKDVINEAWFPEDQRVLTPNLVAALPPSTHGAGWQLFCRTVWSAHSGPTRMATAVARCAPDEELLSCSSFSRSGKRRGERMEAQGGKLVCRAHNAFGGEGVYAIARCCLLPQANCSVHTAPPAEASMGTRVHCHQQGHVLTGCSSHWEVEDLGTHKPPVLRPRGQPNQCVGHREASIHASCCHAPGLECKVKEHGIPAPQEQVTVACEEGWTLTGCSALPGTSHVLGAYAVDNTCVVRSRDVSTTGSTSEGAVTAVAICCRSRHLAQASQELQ
Sequence of PCSK9 secreted by HepG2 cells (Q8NBP7 31-152 partner): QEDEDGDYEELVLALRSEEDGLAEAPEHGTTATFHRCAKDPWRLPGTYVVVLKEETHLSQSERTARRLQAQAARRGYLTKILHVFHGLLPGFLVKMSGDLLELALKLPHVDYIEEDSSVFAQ
Sequence of PCSK9 protein (Q8NBP7 153-692): as the sequence (Q8NBP7 153-692) above

With `O=c1c(-c2ccc(N[C@H]3CC[C@H](Nc4ncc(OC(F)F)cn4)C3)nc2)ccc2ccccn12` [Example 47], the LDLR expression level in series [1] turned out to be 859%. In addition, in series [2], the concentration for half-maximal inhibition (IC50) is 18 µM.

`FC(F)Oc1cnc(N[C@H]2CC[C@H](Nc3ccc(-c4cccc5ccnn45)cn3)C2)nc1` [Example 52, (1S,3S)—N1-(5-(difluoromethoxy)pyrimidin-2-yl)-N3-(5-(pyrazolo[1,5-a]pyridin-7-yl)pyridin-2-yl)cyclopentane-1,3-diamine]: the LDLR expression level in series [1] came out at 278%. For the same molecule, the IC50 in series [2] came to 11 µM.

Regarding `FC(F)Oc1cnc(N[C@H]2CC[C@H](Nc3ccc(-c4cccn5ccnc45)cn3)C2)nc1` [Example 53], in series [1], the LDLR expression level was determined as 175%. The IC50 in series [2] was 24.1 µM.

As for `O=C1c2ccncc2CN1c1ccc(N[C@H]2CC[C@H](Nc3ncc(OC(F)F)cn3)C2)nc1` [Example 76, 2-(6-(((1S,3S)-3-((5-(difluoromethoxy)pyrimidin-2-yl)amino)cyclopentyl)amino)pyridin-3-yl)-2,3-dihydro-1H-pyrrolo[3,4-c]pyridin-1-one], the LDLR expression level in series [1] is reported as 156%. In series [2], the IC50 was 12.1 µM.

`O=S1(=O)CCCCN1c1ccc(N[C@H]2CC[C@H](Nc3ncc(OC(F)F)cn3)C2)nc1` [Example 92, 2-(6-(((1S,3S)-3-((5-(difluoromethoxy)pyrimidin-2-yl)amino)cyclopentyl)amino)pyridin-3-yl)-1,4-butanesulfolactam]: the LDLR expression level in series [1] amounted to 105%. Further, the IC50 in series [2] is 16.3 µM.

On to `N#Cc1cnn2c(-c3ccc(N[C@H]4CC[C@H](Nc5ncc(OC(F)F)cn5)C4)nc3)cccc12` [Example 99, 7-(6-(((1S,3S)-3-((5-(difluoromethoxy)pyrimidin-2-yl)amino)cyclopentyl)amino)-3-yl) pyrazolo[1,5-a]pyridine-3-carbonitrile], for which the LDLR expression level in series [1] was found to be 274%. The IC50 in series [2] was 2.6 µM.

Consider `Cc1nccc2c1CN(c1ccc(N[C@H]3CC[C@H](Nc4ncc(OC(F)F)cn4)C3)nc1)C2=O` [Example 115, 2-(6-(((1S,3S)-3-((5-(difluoromethoxy)pyrimidin-2-yl)amino)cyclopentyl)amino)-3-yl)-4-methyl-2,3-dihydro-1H-pyrrolo[3,4-c]pyridin-1-one], for which binding at PCSK9 protein was put at a Kd of 0.0031 µM. Further, in series [3], the Time to peak tmax was found to be 0.5 h, the AUC(0-inf) is 20900 ng·h/mL, the half-life was 5.8 h and the MRT is 5.3 h. Also, in series [3], the Cmax came to 4290 ng/mL. Moreover, the IC50 in series [2] came to 3.8 µM.

Molecule `O=C1c2cccnc2CN1c1ccc(NC2CCC(Nc3ncc(OC(F)(F)F)cn3)C2)nc1` [Example 122, 6-(6-(((1S,3S)-3-((5-(trifluoromethoxy)pyrimidin-2-yl)amino)cyclopentylamino)pyridin-3-yl)-6,7-dihydro-5H-pyrrolo[3,4-b]pyridin-5-one] yielded a Kd at PCSK9 protein of 0.0022 µM. Further, in series [3], the “Area under the curve AUC0-∞” value is 13239 ng·h/mL, the “Half-life t1/2” value worked out at 3.2 h, the “Mean residence time MRT” value turned out to be 4.5 h and the “Plasma concentration Cmax” value is 2333 ng/mL. In series [3], this molecule had a Time to peak tmax of 0.5 h. Besides, the IC50 in series [2] turned out to be 1.2 µM.

Turning to `O=C1c2cccnc2CN1c1ccc(N[C@H]2CC[C@H](Nc3ncc(C(F)(F)F)nn3)C2)nc1` [Example 145], at PCSK9 protein, binding was put at a Kd of 0.0032 µM. Further, in series [3], the Time to peak tmax was found to be 0.5 h, the AUC(0-inf) was 12200 ng·h/mL, the half-life was 3.8 h and the MRT came out at 4.6 h. Moreover, in series [3], the Cmax is 2370 ng/mL. Also, the IC50 in series [2] was 24.5 µM.

`O=C1c2nc(C(F)(F)F)ccc2CN1c1ccc(N[C@H]2CC[C@H](Nc3nc4cc(F)ccn4n3)C2)nc1` [Example 155, 6-(6-(((1S,3S)-3-((7-fluoro-[1,2,4]triazolo[1,5-a]pyridin-2-yl)amino)cyclopentyl)amino)pyridin-3-yl)-2-(trifluoromethyl)-5,6-dihydro-7H-pyrrolo[3,4-b]pyridin-7-one] registered a Kd at PCSK9 protein of 0.0028 µM. Besides, in series [3], the Time to peak tmax turned out to be 0.5 h, the AUC(0-inf) turned out to be 25500 ng·h/mL, the half-life was 5.9 h and the MRT came out at 1.9 h. Moreover, the Cmax in series [3] was 10000 ng/mL. The IC50 in series [2] came out at 19.9 µM.

Consider `O=C1c2c(cccc2C(F)(F)F)CN1c1ccc(N[C@H]2CC[C@H](Nc3nc4cc(F)ccn4n3)C2)nc1` [Example 161], for which binding at PCSK9 protein was characterised by a dissociation constant (Kd) of 0.0026 µM. In addition, in series [2], the IC50 was determined as 17.6 µM.

In the case of `O=C1c2cccc(C(F)(F)F)c2CN1c1ccc(N[C@H]2CC[C@H](Nc3nc4cc(F)ccn4n3)C2)nc1` [Example 162], the Kd on PCSK9 protein is 0.003 µM. Besides, the IC50 in series [2] amounted to 22.8 µM.
